Reference: publication PMC6891475, “Synthesis and Antiproliferative Evaluation of Novel Hybrids of Dehydroabietic Acid Bearing 1,2,3-Triazole Moiety” (Molecules, 2019)

Legend:
[1] = system: human nasopharyngeal carcinoma cell (CNE-2); assay: MTT antiproliferative assay, CNE-2; format: cell-based
Protocol: (§1) The antiproliferative activities of the 16 library members were tested against four human cancer cell lines including human nasopharyngeal carcinoma cell (CNE-2), human liver cancer cell (HepG2), human hepatocellular carcinoma cell (BEL-7402), human cervical cancer cells (HeLa), and human normal liver cell (HL-7702) using MTT assay according the reported literature method.
(§2) All the compounds (3a–p) were evaluated for their in vitro cytotoxicity against the following human cancer cell lines including CNE-2, HepG2, BEL-7402, Hela and normal liver cell HL-7702 by MTT assay. The cell lines were plated in 96-well plates at density of 5×10^3 cells/well and maintained at 37 °C with 5% CO2. The target compounds 3a–p dissolved in DMSO and further dilutions were made with DMEM, with cisplatin as the positive control. The concentration of the compounds used were 0.8, 4, 20, 100 μM. After the treatment of another 48 h and 72 h with different concentration of the samples (0.8, 4, 20, 100 μM), Therewith, 20 μL of MTT (5 mg/mL) was added and incubated for about 4 h. The medium was thrown away and the purple formazan precipitations were dissolved in 150 μL DMSO. The O. D. Value was measured at 490 nm in an enzyme labeling instrument.

[2] = system: human cervical cancer cells (HeLa); assay: MTT antiproliferative assay, HeLa; format: cell-based; details: mean ± SD from three independent experiments
Protocol: as §1, §2

[3] = system: human hepatocellular carcinoma cell (BEL-7402); assay: MTT antiproliferative assay, BEL-7402; format: cell-based
Protocol: as §1, §2

[4] = system: human liver cancer cell (HepG2); assay: MTT antiproliferative assay, HepG2; format: cell-based
Protocol: as §1, §2

[5] = system: human normal liver cell (HL-7702); assay: MTT cytotoxicity assay, HL-7702 normal cells; format: cell-based; details: for IC50: mean ± SD from three independent experiments; for cytotoxicity on the human normal liver cell (HL-7702), in words: qualitative statement
Protocol: as §1, §2

[6] = Homo sapiens, CNE-2, mean ± SD from three independent experiments
[7] = Homo sapiens, Bel-7402, mean ± SD from three independent experiments
[8] = Homo sapiens, HepG2, mean ± SD from three independent experiments
[9] = Homo sapiens, L02, normal liver cell
[10] = mean ± SD from three independent experiments

SMILES	IC50 [1, 6]	melting point	IC50 ([2]; Homo sapiens)	IC50 [3, 7]	IC50 [4, 8]	IC50 [5, 9]	cytotoxicity on the human normal liver cell (HL-7702), in words [5]	IC50 [1, 10]	IC50 [2]	IC50 [3, 10]	IC50 [4, 10]	IC50 ([5]; normal liver cell)
CC(C)c1ccc2c(c1)CCC1[C@](C)(C(=O)OCc3cn(Cc4ccccc4Br)nn3)CCC[C@]21C (stereo partly shown) [Compound 3h, [1-(2-bromobenzyl)-1H-1,2,3-triazole-4-yl]dehydroabietic acid methyl ester]	48.3 ± 0.27 µM	95.1 to 97.3 °C	25.9 ± 0.2 µM	27.3 ± 0.36 µM	35.42 ± 0.21 µM	> 100 µM	–	–	–	–	–	–
CC(C)c1ccc2c(c1)CCC1[C@](C)(C(=O)OCc3cn(Cc4cccc([N+](=O)[O-])c4)nn3)CCC[C@]21C (stereo partly shown) [Compound 3l, [1-(3-nitrobenzyl)-1H-1,2,3-triazole-4-yl]dehydroabietic acid methyl ester]	11.5 ± 0.18 µM	128.5 to 132.3 °C	67.37 ± 0.33 µM	15.4 ± 0.51 µM	15.8 ± 0.64 µM	> 100 µM	–	–	–	–	–	–
Cc1ccc(Cn2cc(COC(=O)[C@]3(C)CCC[C@]4(C)c5ccc(C(C)C)cc5CCC34)nn2)cc1 (stereo partly shown) [Compound 3o, [1-(4-methylbenzyl)-1H-1,2,3-triazole-4-yl]dehydroabietic acid methyl ester]	> 100 µM	160.4 to 162 °C	42.51 ± 0.37 µM	41.9 ± 0.72 µM	51.78 ± 0.43 µM	> 100 µM	–	–	–	–	–	–
CC(C)c1ccc2c(c1)CCC1[C@](C)(C(=O)OCc3cn(Cc4ccc([N+](=O)[O-])cc4)nn3)CCC[C@]21C (stereo partly shown) [Compound 3m, [1-(4-nitrobenzyl)-1H-1,2,3-triazole-4-yl]dehydroabietic acid methyl ester]	19.6 ± 0.38 µM	173.9 to 176.7 °C	22.5 ± 0.35 µM	22.81 ± 0.22 µM	> 100 µM	> 100 µM	–	–	–	–	–	–
CC(C)c1ccc2c(c1)CCC1[C@](C)(C(=O)OCc3cn(Cc4cccc(Cl)c4)nn3)CCC[C@]21C (stereo partly shown) [Compound 3f, [1-(3-chlorobenzyl)-1H-1,2,3-triazole-4-yl]dehydroabietic acid methyl ester]	59.03 ± 0.28 µM	153.2 to 155.5 °C	53.78 ± 0.32 µM	26.09 ± 0.15 µM	22.3 ± 0.35 µM	> 100 µM	–	–	–	–	–	–
CC(C)c1ccc2c(c1)CCC1[C@](C)(C(=O)OCc3cn(Cc4ccc(F)cc4)nn3)CCC[C@]21C (stereo partly shown) [Compound 3d, [1-(4-fluorobenzyl)-1H-1,2,3-triazole-4-yl]dehydroabietic acid methyl ester]	12.2 ± 0.33 µM	183 to 186.3 °C	22.3 ± 0.35 µM	14.8 µM	20.6 ± 0.09 µM	> 100 µM	–	–	–	–	–	–
CC(C)c1ccc2c(c1)CCC1[C@](C)(C(=O)OCc3cn(Cc4ccccc4Cl)nn3)CCC[C@]21C (stereo partly shown) [Compound 3e, [1-(2-chlorobenzyl)-1H-1,2,3-triazole-4-yl]dehydroabietic acid methyl ester]	74.88 ± 0.14 µM	80.6 to 84.3 °C	44.28 ± 0.43 µM	25.1 ± 0.32 µM	45.08 ± 0.33 µM	> 100 µM	–	–	–	–	–	–
CC(C)c1ccc2c(c1)CCC1[C@](C)(C(=O)OCc3cn(Cc4cccc(F)c4)nn3)CCC[C@]21C (stereo partly shown) [Compound 3c, [1-(3-fluorobenzyl)-1H-1,2,3-triazole-4-yl]dehydroabietic acid methyl ester]	10.9 ± 0.21 µM	175.7 to 178.3 °C	20.1 ± 0.54 µM	16.72 ± 0.06 µM	5.9 ± 0.41 µM	> 100 µM	lower cytotoxicity	–	–	–	–	–
CC(C)c1ccc2c(c1)CCC1[C@](C)(C(=O)OCc3cn(Cc4ccccc4F)nn3)CCC[C@]21C (stereo partly shown) [Compound 3b, [1-(2-fluorobenzyl)-1H-1,2,3-triazole-4-yl]dehydroabietic acid methyl ester]	21.4 ± 0.52 µM	122.4 to 125.8 °C	17.8 ± 0.31 µM	18.6 ± 0.82 µM	25.9 ± 0.27 µM	> 100 µM	–	–	–	–	–	–
CC(C)c1ccc2c(c1)CCC1[C@](C)(C(=O)OCc3cn(Cc4ccc(Br)cc4)nn3)CCC[C@]21C (stereo partly shown) [Compound 3j, [1-(4-bromobenzyl)-1H-1,2,3-triazole-4-yl]dehydroabietic acid methyl ester]	> 100 µM	172.5 to 174 °C	43.18 ± 0.22 µM	14.5 ± 0.62 µM	23.4 ± 0.32 µM	> 100 µM	–	–	–	–	–	–
N.N.[Cl][Pt][Cl] [Cisplatin, cisplatin, reference compound]	–	–	–	–	–	–	–	8.75 ± 0.24 µM	1.94 ± 0.2 µM	12.7 ± 0.33 µM	6.42 ± 0.18 µM	20.8 ± 0.83 µM
CC(C)c1ccc2c(c1)CCC1[C@](C)(C(=O)OCc3cn(Cc4cccc(Br)c4)nn3)CCC[C@]21C (stereo partly shown) [Compound 3i, [1-(3-bromobenzyl)-1H-1,2,3-triazole-4-yl]dehydroabietic acid methyl ester]	44.14 ± 0.22 µM	146.1 to 148 °C	56.08 ± 0.36 µM	36.88 ± 0.23 µM	40.7 ± 0.62 µM	> 100 µM	–	–	–	–	–	–
CC(C)c1ccc2c(c1)CC[C@H]1[C@](C)(C(=O)O)CCC[C@]21C [DHAA, dehydroabietic acid]	–	–	37.4 ± 0.64 µM	–	80.4 ± 0.84 µM	> 100 µM	–	–	–	–	–	–
CC(C)c1ccc2c(c1)CCC1[C@](C)(C(=O)OCc3cn(Cc4ccccc4)nn3)CCC[C@]21C (stereo partly shown) [Compound 3a, (1-benzyl-1H-1,2,3-triazole-4-yl)dehydroabietic acid methyl ester]	33.4 ± 0.33 µM	181 to 183.4 °C	67.88 ± 0.56 µM	36.4 ± 70 µM	> 100 µM	> 100 µM	–	–	–	–	–	–
COc1cccc(Cn2cc(COC(=O)[C@]3(C)CCC[C@]4(C)c5ccc(C(C)C)cc5CCC34)nn2)c1 (stereo partly shown) [Compound 3p, [1-(3-methoxybenzyl)-1H-1,2,3-triazole-4-yl]dehydroabietic acid methyl ester]	80.98 ± 0.78 µM	106.5 to 108 °C	24.66 ± 0.16 µM	25.03 ± 0.22 µM	> 100 µM	> 100 µM	–	–	–	–	–	–
CC(C)c1ccc2c(c1)CCC1[C@](C)(C(=O)OCc3cn(Cc4ccccc4[N+](=O)[O-])nn3)CCC[C@]21C (stereo partly shown) [Compound 3k, [1-(2-nitrobenzyl)-1H-1,2,3-triazole-4-yl]dehydroabietic acid methyl ester]	44.9 ± 0.32 µM	119.7 to 122.2 °C	> 100 µM	18.6 ± 0.26 µM	6.25 ± 0.37 µM	> 100 µM	lower cytotoxicity	–	–	–	–	–
CC(C)c1ccc2c(c1)CCC1[C@](C)(C(=O)OCc3cn(Cc4ccc(Cl)cc4)nn3)CCC[C@]21C (stereo partly shown) [Compound 3g, [1-(4-chlorobenzyl)-1H-1,2,3-triazole-4-yl]dehydroabietic acid methyl ester]	60.7 ± 66 µM	176.9 to 179.2 °C	> 100 µM	38 ± 0.48 µM	> 100 µM	> 100 µM	–	–	–	–	–	–
Cc1cccc(Cn2cc(COC(=O)[C@]3(C)CCC[C@]4(C)c5ccc(C(C)C)cc5CCC34)nn2)c1 (stereo partly shown) [Compound 3n, [1-(3-methylbenzyl)-1H-1,2,3-triazole-4-yl]dehydroabietic acid methyl ester]	> 100 µM	130.7 to 132.8 °C	25.3 ± 0.81 µM	23.6 ± 0.44 µM	60.18 ± 0.39 µM	> 100 µM	–	–	–	–	–	–
